Results reported in patent US6617423B1, “Superpotent calcitonin analogs having greatly increased hypocalcemic action in vivo” (Fraunhofer-Gesellschaft zur Forderung der Angewandten …, priority 1997, dated 2003).

Test system: BALB/c mice
Assay: hypocalcemic test in vivo in BALB/c mice
Details: for biological activity as percentage activity of the hypocalcemic effect maximally achievable in this test: 100% = effect achieved by 2 μg of hCt, BALB/c mice
Protocol: The biological activity of the analogs was determined by means of a hypocalcemic test in vivo in BALB/c mice.
The biological activity is shown as a percentage [%] activity of the hypocalcemic effect maximally achievable in this test, as is achieved by 2 μg of hCt.

[1] = concentration of the peptides 0.01 ng/ml
[2] = concentration of the peptides 0.1 ng/ml
[3] = concentration of the peptides 1 ng/ml
[4] = concentration of the peptides 10 ng/ml
[5] = relative to hCt, mouse in-vivo test

Row | Substance | biological activity as percentage activity of the hypocalcemic effect maximally achievable in this test [1] | biological activity as percentage activity of the hypocalcemic effect maximally achievable in this test [2] | biological activity as percentage activity of the hypocalcemic effect maximally achievable in this test [3] | biological activity as percentage activity of the hypocalcemic effect maximally achievable in this test [4] | activity above the activity of the human calcitonin [5] | times more active than the original human calcitonin [5] | times more active than calcitonin from salmon (sCt) (relative to sCt, mouse in-vivo test)
1 | calcitonin from salmon [sCt, reference compound] | 21.1% | 51.6% | 63.2% |  |  |  | 
2 | cyclo^17,21-[Asp^17,Orn^21]-hCt [Cyclo^17,21-[Asp^17, Om^21]-hCt] | 36.8% | 68.4% | 76.3% | 86.8% | 363 fold | 360 times | three
3 | human calcitonin [hCt, reference compound] |  | 5.8% | 15.8% | 35.2% |  |  | 
